Assay results published in publication PMC9718554, “Discovery of a fragment hit compound targeting D-Ala:D-Ala ligase of bacterial peptidoglycan biosynthesis” (Journal of Enzyme Inhibition and Medicinal Chemistry, 2022).
Where two headings read alike, the source gives them in different places.

Target: T1, E. coli DdlB enzyme (D-alanine:D-alanine ligase) (Escherichia coli, UniProt P07862)
T1 construct: made in house; host or cells: E. coli
Test: biochemical
Conditions: read-out: DdlB RA; for remaining activity at 3100 µM: tested concentration 3.1 mM; for remaining activity at 1900 µM: tested concentration 1.9 mM

[1] = residual activity of DdlB, fragment library screening, tested concentration 2.5 mM

SMILES | remaining activity at 2500 µM [1] | other results
Cc1nn(Cc2c(C(=O)O)noc2C)c(C)c1C [FF01-5078] |  | remaining activity at 2000 µM (tested concentration 2.0 mM): 81%
O=C1CSCC(C(=O)O)N1 (stereo not shown) [FF01-5725] |  | remaining activity at 3100 µM: 107%
N#CCS(=O)(=O)C1CCCCC1 [FF20-0194] |  | remaining activity at 3200 µM (residual activity of DdlB, fragment library screening, tested concentration 3.2 mM): 101%
COc1ccccc1Cc1noc([C@H]2CCCN2)n1 [FF20-0278] |  | remaining activity at 1900 µM: 87%
Cn1cnc2c(c1=O)CCC(N)CC2 (stereo not shown) [FF20-0287] |  | remaining activity at 3100 µM: 91%
Cc1nc(C(=O)O)c(C)n1C1CCN(C)CC1 [FF20-0714] |  | remaining activity at 2100 µM (residual activity, tested concentration 2.1 mM): 100%
O=c1cc(N2CCOCC2)cn[nH]1 [FF20-1495] |  | remaining activity at 3000 µM (residual activity of DdlB, fragment library screening, tested concentration 3.0 mM): 88%
CC(C)N1CCC(CCC(=O)O)CC1 [FF20-1518] |  | remaining activity at 2500 µM (tested concentration 2.5 mM): 108%
Cc1cc(C)n(CCN2CCOCC2)n1 [FF20-3241] |  | remaining activity at 1900 µM: 86%
CC(C)Oc1c(OC(C)C)c(=O)c1=O [FF20-3460] |  | remaining activity at 2500 µM (tested concentration 2.5 mM): 72%
O=C(O)C1CCN(c2ccc(C(F)(F)F)cn2)CC1 [FF30-0262] |  | remaining activity at 1800 µM (fragment library screening, tested concentration 1.8 mM): 92%
CC(=O)Oc1cccc(C(=O)O)c1 [FLD001] | 100% | 
O=c1[nH][nH]c2ccccc12 [FLD002] | 89% | 
O=C(O)Cc1ccsc1 [FLD003] | 100% | 
N#Cc1nc[nH]c1C#N [FLD004] |  | remaining activity at 2500 µM: 100%
O=C(O)c1n[nH]c2ccccc12 [FLD005] | 97% | 
COC(=O)c1ccccc1C(=O)O [FLD006] | 89% | 
NC(=O)c1cnccn1 [FLD007] | 100% | 
COc1ccc2c(c1)C(=O)CCC2 [FLD008] | 100% | 
Oc1cccc2[nH]ccc12 [FLD010] | 100% | 
O=C(O)c1c[nH]cn1 [FLD011] | 100% | 
COc1cc(C#N)ccc1C [FLD012] | 51% | 
COc1ccc2ccc(O)cc2c1 [FLD013] | 73% | 
Cc1cc(N)no1 [FLD014] | 104% | 
CC(=O)c1ccc([N+](=O)[O-])cc1 [FLD015] | 100% | 
NC(=O)Nc1ccccc1 [FLD016] | 99% | 

SMILES | remaining activity at 2500 µM [1] | other results
NC(=O)NC(=O)Cc1ccccc1 [FLD017] | 100% | 
Cc1nc(-c2ccc(C(=O)O)cc2)cs1 [FLD018] | 99% | 
CC(Oc1ccccc1)C(=O)O (stereo not shown) [FLD019] | 99% | 
O=C(O)c1ccc(-n2ccnc2)cc1 [FLD020] | 96% | 
Cc1c[nH]c(=O)[nH]c1=O [FLD021] | 91% | 
O=C1CNC(=S)N1 [FLD022] | 98% | 
Cc1ccc(N)c(O)c1 [FLD023] |  | remaining activity at 2500 µM: 100%
Cc1nc(-c2ccncc2)sc1C(=O)O [FLD024] | 96% | 
Cc1ccc(C(=N)N)cc1 [FLD025] | 100% | 
O=C(O)c1ccc(-c2cnco2)cc1 [FLD026] | 87% | 
COc1cc(O)cc(OC)c1OC [FLD027] | 98% | 
O=C1CCC(C(=O)O)N1 (stereo not shown) [FLD028] | 100% | 
O=C1COc2cc(O)ccc21 [FLD029] | 100% | 
COc1ccc(-c2ccc(C(=O)O)o2)cc1 [FLD030] | 100% | 
NC(=O)c1cccnc1 [FLD031] | 100% | 
Nc1cc(Cl)ccc1O [FLD032] | 100% | 
Cc1ccccc1C(=O)NCC(=O)O [FLD033] | 100% | 
O=C(O)c1ccc[nH]1 [FLD034] | 100% | 
[C-]#[N+]CS(=O)(=O)c1ccc(C)cc1 [FLD035] |  | remaining activity at 2500 µM: 100%
Cc1cc(N)on1 [FLD036] | 97% | 
Cc1cc(Cl)ccc1O [FLD037] | 85% | 
O=C(O)C1Cc2ccccc2N1 (stereo not shown) [FLD038] | 81% | 
O=C(O)[C@H](O)Cc1ccccc1 [FLD039] | 93% | 
c1cnc2c(c1)ccc1cccnc12 [FLD040] | 74% | 
O=C1CNC(=O)N1 [FLD041] | 95% | 
Nc1cc(O)[nH]n1 [FLD042] | 100% | 

SMILES | remaining activity at 2500 µM [1] | other results
NC(=O)c1ccccc1N [FLD043] | 98% | 
NOCc1ccccc1 [FLD044] | 94% | 
Oc1ccc(OCc2ccccc2)cc1 [FLD045] | 100% | 
Cc1cc(Cl)nc(N)n1 [FLD046] | 79% | 
Nc1cc(F)c(F)cc1C(=O)O [FLD047] | 92% | 
COc1cc(N)c(C#N)cc1OC [FLD048] | 100% | 
COc1nc(Cl)nc(OC)n1 [FLD049] | 95% | 
Nc1ccc(F)c(Cl)c1 [FLD050] |  | remaining activity at 2500 µM: 98%
Cc1ccc(C#N)c(O)n1 [FLD051] | 97% | 
Nc1ccc(Cl)nn1 [FLD052] | 96% | 
Nc1cc[nH]c(=O)n1 [FLD053] | 100% | 
Nc1cccc2ncccc12 [FLD054] | 94% | 
O=C(O)Cc1ccncc1 [FLD055] | 96% | 
O=C(O)c1ccc(CN2CCCCC2)cc1 [FLD056] | 100% | 
O=C1CC[C@H](C(=O)O)O1 [FLD057] |  | remaining activity at 2500 µM: 100%
O=C1CNCCN1 [FLD058] | 100% | 
N=C1NC(=O)CS1 [FLD059] | 99% | 
O=C(O)c1ccccc1Br [FLD060] | 100% | 
Nc1cccc([N+](=O)[O-])c1 [FLD061] | 98% | 
O=C(O)c1ccc(F)cc1 [FLD062] | 98% | 
CC(=O)Nc1cccc(C)c1 [FLD063] | 100% | 
CCOc1ccc(NC(C)=O)cc1 [FLD064] | 98% | 
OCc1cccc(Oc2ccccc2)c1 [FLD065] | 100% | 
O=C(O)C(c1ccccc1)c1ccccc1 [FLD066] | 100% | 
NS(=O)(=O)c1ccc(Cl)s1 [FLD067] | 100% | 
O=C(O)c1ccc2cc(O)ccc2c1 [FLD068] | 94% | 

SMILES | remaining activity at 2500 µM [1] | other results
Nc1ccc(-c2ccc(N)cc2)cc1 [FLD069] | 70% | 
CN(C)c1ccc(C(=O)O)cc1 [FLD070] | 93% | 
O=C(O)c1cccc(Cl)c1 [FLD071] | 100% | 
Cc1ccc(O)c(C(=O)O)c1 [FLD072] | 99% | 
C/C=C/c1ccc(OC)cc1 [FLD073] | 100% | 
Nc1ccc2ccccc2c1 [FLD074] | 89% | 
Cc1ccc(N)c(N)c1 [FLD075] | 90% | 
Oc1cccc(-c2ccccc2)c1 [FLD076] | 98% | 
OC1CCCc2ccccc21 (stereo not shown) [FLD077] | 99% | 
Nc1csc2nccnc12 [FLD078] | 100% | 
S=c1[nH]ncs1 [FLD079] | 81% | 
Nc1ccc(Cl)cc1 [FLD080] | 100% | 
Cc1cc(=O)n(-c2ccccc2)n1C [FLD081] | 100% | 
O=C(O)Cc1cccnc1 [FLD083] | 98% | 
Nc1ncncn1 [FLD084] | 98% | 
Nc1cccc(O)c1 [FLD085] | 100% | 
Cc1cccc(N)c1C#N [FLD086] | 100% | 
Cc1ccnc(N)c1 [FLD087] | 100% | 
Nc1ncccc1C(=O)O [FLD088] |  | remaining activity at 2500 µM: 98%
COc1cnc(N)nc1 [FLD089] | 100% | 
Cc1cc(N)ccn1 [FLD090] | 100% | 
Nc1cccc(C(F)(F)F)n1 [FLD091] |  | remaining activity at 2500 µM: 100%
O=[N+]([O-])c1ccc(O)c(Cl)c1 [FLD092] | 97% | 
O=C(c1ccc(O)cc1)c1ccc(O)cc1 [FLD093] | 97% | 
Cc1cc(C(=O)O)n(C)n1 [FLD094] | 96% | 
Clc1ccc(Cl)nn1 [FLD095] | 98% | 

SMILES | remaining activity at 2500 µM [1] | other results
O=C(O)c1ccco1 [FLD096] | 95% | 
O=C(O)c1cc(O)ccc1Cl [FLD097] | 94% | 
CCOC(=O)Nc1ccccc1 [FLD098] | 96% | 
CCOc1ccc(O)cc1 [FLD099] | 100% | 
Cc1nc(C(=O)O)cs1 [FLD100] | 93% | 
CC(=O)NC1CCC(=O)CC1 [FLD101] | 98% | 
CNC(C)C(O)c1ccccc1 (stereo not shown) [FLD102] | 97% | 
Nc1ncn[nH]1 [FLD103] | 95% | 
CCc1occc(=O)c1O [FLD104] | 86% | 
Oc1ccccc1 [FLD105] |  | remaining activity at 2500 µM: 95%
CCOC(=O)c1[nH]cnc1C [FLD106] | 100% | 
NC(=S)Nc1ccc(F)cc1 [FLD107] | 95% | 
O=C(O)c1cc2ccccc2oc1=O [FLD109] | 96% | 
NS(=O)(=O)c1ccccc1 [FLD110] | 110% | 
Nc1cccc(N)c1 [FLD111] | 92% | 
N[C@H](c1ccccc1)[C@@H](N)c1ccccc1 [FLD112] |  | remaining activity at 2500 µM: 100%
N#Cc1ccccc1Br [FLD114] | 99% | 
Cc1ccc(C)c(S(=O)(=O)O)c1 [FLD115] | 94% | 
N#CCc1ccc(C(F)(F)F)cc1 [FLD116] | 94% | 
Clc1cc(Cl)ncn1 [FLD117] | 97% | 
Nc1ccc(Br)cc1N [FLD118] | 90% | 
Cc1cc(C)nc(NC#N)n1 [FLD119] | 100% | 
COc1cc(N)ccn1 [FLD120] | 97% | 
